Literature values, collected in patent US20180028686A1 (priority 2014, published 2018).

Tested on: RVFV

For `NC(=O)c1ncn([C@@H]2O[C@H](CO)[C@@H](O)[C@H]2O)n1` [Ribavirin, ribavirin], the IC50 values is listed as “low micromolar range”.
